Assay results taken from article PMC6302903, “Protein and Chemical Determinants of BL-1249 Action and Selectivity for K2P Channels” (ACS Chemical Neuroscience, 2018).

Target: T1, K2P4.1(TRAAK) L147F (Mus musculus, UniProt O88454, L147F)
T1 construct: expressed in transfected cells; host or cells: Xenopus laevis oocytes, mRNA injected
Test: TEVC of K2P4.1(TRAAK) mutant L147F
Type: cell-based
Details: Xenopus oocytes
From the text: To identify K2P2.1(TREK-1) M2 residues that might participate in the BL-1249 response, we mapped the residues that differ between K2P2.1(TREK-1) and K2P4.1(TRAAK) in the context of the K2P2.1(TREK-1) structure[6] (Figure 5B,C). Two K2P2.1(TREK-1) M2 residues stood out as candidates that could explain the reduction in BL-1249 response when the entire M2 helix was replaced with M2 from K2P4.1(TRAAK). One is at the M2/M4 interface and occurs between Phe172 and Arg297 via a π–cation interaction that would be lost when Phe172 is replaced with the equivalent K2P4.1(TRAAK) residue Met134 (Figure 5C, right inset). […] To assess the importance of these interactions in the context of BL-1249 response, we made the K2P2.1(TREK-1) mutants F172M and F185L and measured their responses to BL-1249 (Figure 5D). […]
Xenopus laevis oocytes were harvested in accordance with UCSF IACUC protocol AN129690 and digested in calcium-free ND-96 (96 mM NaCl, 2 mM KCl, 3.8 mM MgCl2) immediately following harvest, as previously described.[6],[10] […] Defolliculated stage V–VI oocytes were injected with 0.2–6.0 ng of mRNA in 50 nL, and currents were recorded 24–48 h after injection. mRNA was synthesized from plasmid DNA using mMessage mMachine Kit (T7 promoter, Ambion, Life Technologies) and purified using RNEasy Kit (Qiagen). […]

T1 sequence (O88454 whole entry L147F): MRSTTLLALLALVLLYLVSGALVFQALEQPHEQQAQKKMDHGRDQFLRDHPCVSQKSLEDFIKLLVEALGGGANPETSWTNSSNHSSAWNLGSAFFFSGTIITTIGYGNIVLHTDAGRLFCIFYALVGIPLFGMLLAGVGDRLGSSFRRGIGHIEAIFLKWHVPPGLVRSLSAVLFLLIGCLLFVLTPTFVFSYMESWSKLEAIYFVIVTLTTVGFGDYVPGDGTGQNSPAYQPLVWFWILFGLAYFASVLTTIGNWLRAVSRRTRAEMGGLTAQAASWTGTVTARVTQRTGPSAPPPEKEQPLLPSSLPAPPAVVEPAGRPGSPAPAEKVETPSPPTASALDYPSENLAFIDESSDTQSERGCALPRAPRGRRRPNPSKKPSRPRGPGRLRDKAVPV

EC50: 27 ± 4 µM
Structure (SMILES): c1ccc(-c2nnn[nH]2)c(Nc2cccc3c2CCCC3)c1 [BL-1249, (5,6,7,8-tetrahydro-naphthalen-1-yl)-[2-(1H-tetrazol-5-yl)-phenyl]-amine]
